For series [1], the system named is rats with infraorbital nerve injury. As to the kind of experiment: Motor deficits observed in rats with IoN injury after drug injection. The settings on record: i.p., doses 7.5-30 mg/kg. The class given is in vivo, rat. The protocol:
(§1) Male and female Sprague-Dawley rats (Möllegård, Denmark) weighing 200-250 g at the start of the experiments were used. All experimental procedures were approved by the local research ethics committee.
(§2) SPM 927 was dissolved in physiological saline and injected intraperitoneally. The data are expressed as median±M.A.D. and analysed with Wilcoxon signed-ranks test.

The test system is the same in series [2]. The experiment in a line: Mechanical sensitivity (von Frey filaments) after photochemically-induced ischemic infraorbital nerve (IoN) injury, model of trigeminal neuropathic pain. The class given is in vivo, rat. The following applies: for effect on mechanical hypersensitivity (response threshold to von Frey stimulation): 14-16 days after IoN injury. The protocol:
as §1
Rats were anesthetized with chloral hydrate. The left IoN was exposed via a longitudinal incision at the maxillary region and all branches of the nerve were carefully lifted on a glass hook. A piece of aluminium foil was placed under the nerve and the nerve was irradiated for 6 min with the tunable argon ion laser. The rat was positioned so that the laser beam was perpendicular and transversal to the exposed nerve. Immediately before irradiation erythrosin B was injected i.v. and the injection was repeated after 5 min. After irradiation the wound was closed in layers.
Mechanical sensitivity was tested with a series of von Frey filaments. The rat was gently held by the experimenter and the von Frey filaments were applied in ascending order to the IoN territory on the hairy skin of the vibrissal pad. The stimulation with each filament consisted of four consecutive applications at 1/s on the injured and then on the contralateral side. […] The rats were habituated to the testing procedure for several days before nerve injury and baseline response was determined in two sessions. Testing was carried out 3, 7, 10 and 14 d after the injury to assess the development of mechanical hypersensitivity. The effect of SPM 927 (7.5, 15, and 30 mg/kg) was tested 14-16 days after injury when mechanical hypersensitivity was well established. Measurements were taken 30 min, 1 h, 2 h, and 3 h following drug injection.
as §2

Entries after “also recorded” stand apart in the source; their conditions may differ.

In the case of `COC[C@@H](NC(C)=O)C(=O)NCc1ccccc1` [SPM 927, (R)-2-acetamide-N-benzyl-3-methoxypropionamide], the motor deficits entry in series [1] was “did not cause motor deficits”. For the same molecule, the “effect on mechanical hypersensitivity (response threshold to von Frey stimulation)” value in series [2] (female rats, 7.5 mg/kg i.p.) was “no effect”; in series [2] (female rats, 15 mg/kg i.p.), “significantly and markedly alleviated mechanical hypersensitivity”; in series [2] (female rats, 20 mg/kg i.p.) it was “significantly and markedly alleviated mechanical hypersensitivity”; in series [2] (male rats, 15 mg/kg i.p.) it was “did not alleviate mechanical hypersensitivity”; in series [2] (male rats, 20 mg/kg i.p.), “did not alleviate mechanical hypersensitivity”; in series [2] (male rats, 30 mg/kg i.p.), “significantly alleviated mechanical hypersensitivity for 3 h”. Further, the “overall analgesic or/and anti-allodynic effect in rat model of trigeminal neuropathic pain” value in series [2] (systemic, single dose administration) is reported as “dose-dependent analgesic or/and anti-allodynic effect; also recorded: significant efficacy in reducing mechanical hypersensitivity”.

For the origin of these results see patent publication US8338641B2, “Method for treating atypical facial pain” (UCB Pharma GmbH, priority 2004, dated 2012).
